Measured values reported in US20250339444A1, “Methods and Compositions for Treating Fatty Liver and Viral Infections” (The Board of Trustees of the Leland Stanford Junior …, priority 2022, published 2025).

What was measured:
HBV = assay: Reduction of HBV surface antigen in cells infected with HBV; assay type: cell-based; conditions: Hepatitis B virus; cells infected with HBV (FIG. 4: engineered human liver tissue)
Protocol: We then discovered that A27 had antiviral activity against HBV, showing reduction in HBV surface antigen in cells infected with HBV with an EC50 of ˜1 μM (FIG. 4).

[1] = test system: hepatic steatosis in C57/BL6 mice on high fat diet; assay: Hepatic steatosis in C57/BL6 mice on high fat diet, liver ultrasound; assay type: in vivo; conditions: 100 mg/kg/day
SARS-CoV-2 [2] = assay: Combination of A27 with other antivirals against SARS-CoV-2; assay type: cell-based
Text: Thus, A27 can be combined with nirmatrelvir or paxlovid.

RSV-luc5 virus = assay: RSV-luc5 luciferase replication assay in HeLa cells; conditions: human respiratory syncytial virus, 72 h, read-out: EC50, RSV replication
apolipoprotein B (apoB) = apolipoprotein B (apoB) (Homo sapiens, UniProt P04114); assay: Binding to apolipoprotein B
HepG2 cells = assay: Steatosis in HepG2 cells cultured in fatty medium, Nile Red staining; assay type: cell-based
Protocol: Briefly, fatty medium was prepared by 1:1 mixture of oleic acid and palmitic acid (Sigma Aldrich) with 10% FFA-free bovine serum albumin (BSA) solution (Sigma Aldrich) in PBS. Essentially, 100 mM of oleic acid and palmitic acid was prepared in 99% methanol. Palmitic acid was prepared by shaking at 500 rpm 50° C. for 20 mins. 10 mM of oleic acid and palmitic acid was incubated with 10% BSA in PBS at 50° C. for 30 mins. A final concentration of 100 uM FFA mixture was made in the final cell culture medium. Cells were incubated in fatty medium for 4 days to induce fatty liver. Cells were then treated with A27 at various concentrations for 3 days in the presence of the fatty medium. To determine the degree of steatosis, cells were stained with 1 mg/ml Nile Red solution (Sigma Aldrich) in cell culture medium for 15 mins at 37° C. and florescence signal was measured (see FIG. 1).

[3] = test system: Venezuelan equine encephalitis virus (VEEV) TC83 strain; assay: microbe, parasite or virus in culture; assay type: cell-based; conditions: U-87 MG, read-out: EC50, VEEV genome replication
[4] = test system: TMPRSS2-ACE2-Huh7.5 cells; assay: Toxicity in the SARS-CoV-2 cell culture assay; conditions: SARS-CoV-2 assay
PR8 virus (ATCC-VR-1469) = assay: Influenza PR8 plaque assay in MDCK cells; assay type: cell-based
SARS-CoV-2 [5] = assay: microbe, parasite or virus in culture; assay type: cell-based; conditions: Severe acute respiratory syndrome coronavirus 2, read-out: EC50, SARS-CoV-2 genome replication

Sequence of apolipoprotein B (apoB) (P04114 28-4563, species assumed): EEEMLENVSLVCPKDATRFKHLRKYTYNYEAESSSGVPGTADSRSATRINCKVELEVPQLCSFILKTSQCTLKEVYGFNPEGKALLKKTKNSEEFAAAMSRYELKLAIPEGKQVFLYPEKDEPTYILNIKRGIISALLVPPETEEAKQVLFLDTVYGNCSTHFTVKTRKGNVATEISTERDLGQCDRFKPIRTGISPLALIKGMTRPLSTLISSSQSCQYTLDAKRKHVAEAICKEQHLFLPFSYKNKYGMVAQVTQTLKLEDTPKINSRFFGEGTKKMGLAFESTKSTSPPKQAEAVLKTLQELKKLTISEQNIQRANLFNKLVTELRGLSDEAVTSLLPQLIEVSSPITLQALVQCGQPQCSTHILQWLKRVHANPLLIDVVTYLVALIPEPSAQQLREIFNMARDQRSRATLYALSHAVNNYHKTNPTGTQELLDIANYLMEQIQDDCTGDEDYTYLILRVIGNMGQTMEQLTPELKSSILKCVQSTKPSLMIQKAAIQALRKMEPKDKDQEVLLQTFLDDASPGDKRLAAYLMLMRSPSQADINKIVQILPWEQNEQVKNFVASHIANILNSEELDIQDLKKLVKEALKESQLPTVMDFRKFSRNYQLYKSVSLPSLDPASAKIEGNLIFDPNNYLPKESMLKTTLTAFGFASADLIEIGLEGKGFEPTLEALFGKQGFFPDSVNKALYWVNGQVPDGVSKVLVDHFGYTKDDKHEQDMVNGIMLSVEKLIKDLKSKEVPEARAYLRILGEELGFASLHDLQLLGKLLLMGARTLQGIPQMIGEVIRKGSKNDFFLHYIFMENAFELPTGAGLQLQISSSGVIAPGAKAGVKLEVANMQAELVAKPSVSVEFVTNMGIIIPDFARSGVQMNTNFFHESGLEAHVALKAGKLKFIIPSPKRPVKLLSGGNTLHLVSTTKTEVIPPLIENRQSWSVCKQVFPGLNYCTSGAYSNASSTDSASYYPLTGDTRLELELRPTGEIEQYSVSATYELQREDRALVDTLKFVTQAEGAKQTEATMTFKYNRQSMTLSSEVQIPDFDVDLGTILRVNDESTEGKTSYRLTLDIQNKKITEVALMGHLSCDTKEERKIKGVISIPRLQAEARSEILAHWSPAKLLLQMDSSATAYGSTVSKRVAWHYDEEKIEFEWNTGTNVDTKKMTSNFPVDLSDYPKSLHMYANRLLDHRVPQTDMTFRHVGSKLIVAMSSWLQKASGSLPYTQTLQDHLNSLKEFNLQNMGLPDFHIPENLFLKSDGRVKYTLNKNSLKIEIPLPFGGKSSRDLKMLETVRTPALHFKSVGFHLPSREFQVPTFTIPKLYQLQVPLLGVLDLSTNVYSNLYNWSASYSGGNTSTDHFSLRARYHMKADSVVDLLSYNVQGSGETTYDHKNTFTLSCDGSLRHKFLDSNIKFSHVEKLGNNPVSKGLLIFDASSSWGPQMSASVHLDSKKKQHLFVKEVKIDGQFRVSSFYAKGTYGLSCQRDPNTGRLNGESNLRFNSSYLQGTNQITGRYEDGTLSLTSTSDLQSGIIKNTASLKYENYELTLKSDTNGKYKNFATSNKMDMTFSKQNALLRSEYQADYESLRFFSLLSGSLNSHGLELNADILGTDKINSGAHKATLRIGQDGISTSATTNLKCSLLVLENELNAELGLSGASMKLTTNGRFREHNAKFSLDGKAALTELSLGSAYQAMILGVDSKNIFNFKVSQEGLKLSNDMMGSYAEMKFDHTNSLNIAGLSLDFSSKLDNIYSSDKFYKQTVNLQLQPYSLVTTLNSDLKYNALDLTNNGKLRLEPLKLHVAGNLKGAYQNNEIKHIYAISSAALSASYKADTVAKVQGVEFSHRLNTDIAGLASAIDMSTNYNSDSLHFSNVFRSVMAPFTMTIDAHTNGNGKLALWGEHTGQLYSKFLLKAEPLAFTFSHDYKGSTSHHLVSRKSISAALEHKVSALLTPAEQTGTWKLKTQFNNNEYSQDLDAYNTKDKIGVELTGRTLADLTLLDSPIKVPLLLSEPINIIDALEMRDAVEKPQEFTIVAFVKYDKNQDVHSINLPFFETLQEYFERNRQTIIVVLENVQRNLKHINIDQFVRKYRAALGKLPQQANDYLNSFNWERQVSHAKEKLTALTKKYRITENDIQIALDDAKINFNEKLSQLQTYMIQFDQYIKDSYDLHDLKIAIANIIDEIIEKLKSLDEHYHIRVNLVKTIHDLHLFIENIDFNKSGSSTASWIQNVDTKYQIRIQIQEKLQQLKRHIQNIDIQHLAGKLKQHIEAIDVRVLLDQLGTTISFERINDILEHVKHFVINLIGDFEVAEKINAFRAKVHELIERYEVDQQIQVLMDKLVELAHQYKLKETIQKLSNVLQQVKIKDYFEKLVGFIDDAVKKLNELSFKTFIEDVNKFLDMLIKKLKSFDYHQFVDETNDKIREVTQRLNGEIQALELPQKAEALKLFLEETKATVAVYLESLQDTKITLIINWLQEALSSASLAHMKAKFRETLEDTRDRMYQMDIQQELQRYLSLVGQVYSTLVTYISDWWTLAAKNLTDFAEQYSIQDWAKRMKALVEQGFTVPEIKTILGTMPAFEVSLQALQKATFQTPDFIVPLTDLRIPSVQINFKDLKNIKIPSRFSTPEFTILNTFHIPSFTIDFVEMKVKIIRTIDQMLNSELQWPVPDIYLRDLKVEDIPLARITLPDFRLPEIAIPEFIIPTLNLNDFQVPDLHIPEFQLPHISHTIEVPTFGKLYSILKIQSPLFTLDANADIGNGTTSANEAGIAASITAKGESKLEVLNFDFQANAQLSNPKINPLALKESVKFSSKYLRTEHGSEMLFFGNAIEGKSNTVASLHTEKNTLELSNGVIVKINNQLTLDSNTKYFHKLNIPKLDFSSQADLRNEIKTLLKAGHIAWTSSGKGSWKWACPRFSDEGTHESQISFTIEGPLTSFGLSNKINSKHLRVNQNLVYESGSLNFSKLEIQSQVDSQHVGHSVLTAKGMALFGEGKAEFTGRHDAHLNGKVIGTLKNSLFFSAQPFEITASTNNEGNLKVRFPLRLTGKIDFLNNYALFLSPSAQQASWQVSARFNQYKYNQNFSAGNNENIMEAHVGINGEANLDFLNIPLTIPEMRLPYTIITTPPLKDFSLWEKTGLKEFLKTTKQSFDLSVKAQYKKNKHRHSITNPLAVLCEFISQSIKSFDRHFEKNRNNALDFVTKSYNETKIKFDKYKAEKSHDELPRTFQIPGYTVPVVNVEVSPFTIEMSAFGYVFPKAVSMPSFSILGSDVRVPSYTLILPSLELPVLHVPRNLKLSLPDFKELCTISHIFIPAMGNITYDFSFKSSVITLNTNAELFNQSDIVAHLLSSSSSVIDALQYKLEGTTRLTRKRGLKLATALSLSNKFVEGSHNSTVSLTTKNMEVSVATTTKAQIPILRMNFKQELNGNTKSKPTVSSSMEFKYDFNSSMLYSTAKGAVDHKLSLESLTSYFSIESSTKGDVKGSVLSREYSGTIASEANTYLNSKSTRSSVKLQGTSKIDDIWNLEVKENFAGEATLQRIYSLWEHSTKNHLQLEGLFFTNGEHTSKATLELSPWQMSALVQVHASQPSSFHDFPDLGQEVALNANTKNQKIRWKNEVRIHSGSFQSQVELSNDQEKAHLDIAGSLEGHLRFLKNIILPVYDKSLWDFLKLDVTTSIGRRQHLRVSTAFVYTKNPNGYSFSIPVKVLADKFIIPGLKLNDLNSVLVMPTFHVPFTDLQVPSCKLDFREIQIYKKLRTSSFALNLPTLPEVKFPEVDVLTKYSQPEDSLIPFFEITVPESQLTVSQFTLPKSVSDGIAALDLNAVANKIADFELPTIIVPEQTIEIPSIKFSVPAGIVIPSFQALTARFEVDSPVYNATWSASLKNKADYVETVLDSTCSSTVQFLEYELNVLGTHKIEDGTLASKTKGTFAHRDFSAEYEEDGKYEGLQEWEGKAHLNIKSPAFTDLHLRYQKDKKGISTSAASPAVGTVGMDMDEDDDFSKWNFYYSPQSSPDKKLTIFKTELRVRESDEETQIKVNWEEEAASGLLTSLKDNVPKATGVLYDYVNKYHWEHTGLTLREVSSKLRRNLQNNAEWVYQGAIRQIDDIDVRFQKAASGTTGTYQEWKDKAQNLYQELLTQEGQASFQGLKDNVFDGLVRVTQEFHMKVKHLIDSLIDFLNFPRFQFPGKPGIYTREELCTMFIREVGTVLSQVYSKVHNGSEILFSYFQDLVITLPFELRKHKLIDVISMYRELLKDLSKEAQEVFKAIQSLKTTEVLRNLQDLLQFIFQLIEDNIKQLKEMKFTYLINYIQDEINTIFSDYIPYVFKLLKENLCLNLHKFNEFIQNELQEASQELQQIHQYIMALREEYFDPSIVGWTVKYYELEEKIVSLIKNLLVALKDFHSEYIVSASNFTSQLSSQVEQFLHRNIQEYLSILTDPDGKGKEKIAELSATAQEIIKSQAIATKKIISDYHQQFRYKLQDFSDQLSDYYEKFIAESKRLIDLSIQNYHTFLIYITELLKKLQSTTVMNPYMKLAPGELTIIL

Cn1nc(C(=O)NC2CCN(CCN3CCCC3)CC2)c2ccc(N3CCCCCC3)nc21 [Compound A27]
EC50 (HBV): ~1000 nM | tolerability in mice ([1]; 4 weeks): tolerated A27 well | hepatic steatosis measured by liver ultrasound ([1]; high fat diet for 4 weeks, versus vehicle): reduces hepatic steatosis | combination effect with polymerase inhibitor nucleoside analog (SARS-CoV-2 [2]; with a polymerase inhibitor nucleoside analog (e.g. EIDD2801)): additive | combination effect with protease inhibitors (SARS-CoV-2 [2]; with protease inhibitors against SARS-CoV-2 (e.g. PF-07321332)): synergistic | EC50 (RSV-luc5 virus): 1100 nM | toxicity (U87-MG cells): without any evidence of toxicity | binding to apolipoprotein B (apoB) (apolipoprotein B (apoB)): can bind | lipid accumulation (Nile Red fluorescence) (HepG2 cells; HepG2 cells, A27 at various concentrations for 3 days in fatty medium): dose-dependent decrease in lipid accumulation | EC50 (HepG2 cells; Homo sapiens, HepG2, 72 h, read-out: half effective concentration (EC50), inhibition of formation of steatosis): ~500 nM | EC50 [3]: 7900 nM | toxicity [4]: without any evidence of toxicity | plaque size compared to oseltamivir treated wells (PR8 virus (ATCC-VR-1469)): smaller-sized plaques | EC50 (SARS-CoV-2 [5]): 803 nM
